According to US10961228B2, “JAK1 selective inhibitors” (AstraZeneca AB, priority 2017, dated 2021):

Assays:
[1] = tested on: OVA-challenged Brown Norway rat; experiment: OVA lung inflammation model, eosinophils in broncho alveolar lavage; format: in vivo; details: for reduction of eosinophils in BAL: inhaled DPI, vs OVA/OVA group 3
Description: Brown Norway rats were sensitised and challenged with chicken ovary albumin (OVA) (Clinical and Experimental Allergy, 37 (2007) 973-988). After inhaling an amount of micronized compound within the scope of the present disclosure, the reduction in airway inflammation in the lung of OVA-challenged Brown Norway rat was measured as % reduction of eosinophils in broncho alveolar lavage (BAL) compared to challenged, but untreated rat using the following protocol. As the model control, an i.t. over dose (2*300 μg/kg) of the model reference compound, Budesonide, was used. 74 animals were divided into 8 experimental groups and treated as follows: • Group 1 (Saline/Saline/Air), n=6—Sham (saline) sensitisation at Day0 (S1) and Day7 (S2) and sham (saline) challenged at Day14 (P1). Treatment room air • Group 2 (OVA/Saline/Lactose), n=8—Sensitised at Day0 (S1) and Day7 (S2) with Al(OH)3/OVA mixture followed by the i.t. sham (saline) challenge at Day14 (P1). Treatment DPI Lactose. • Group 3 (OVA/OVA/Lactose), n=12—Sensitised at Day0 (S1) and Day7 (S2) with Al(OH)3/OVA mixture followed by the i.t. OVA challenge at Day14 (P1). […] Treatment i.t. with Budesonide (model reference compound) at 2×300 μg/kg Day14. Twice daily. Prior to start of first sensitisation (S1), the body weight (BW) was recorded and all rats were tail marked with the identification number. The BW was additionally recorded prior to S2 and prior to the termination point (D15). All of the animals' BAL was determined. At the time of termination, the performer(s) (investigator) were blinded to the status of the individual rats, The rats where subcutaneously (s.c.) injected with a mixture of OVA/Al(OH)3 (100 μg OVA:100 mg Alum in 1 ml saline/rat), and intraperitoneally (i.p.) injected with 0.5 ml/rat of B. Pertussis toxin (0.1 μg/ml) at Day 0 and Day 7. Sham sensitisation was performed by s.c. and i.p. injections of isotonic saline with the same volume and strategy. Each exposure system consisted of a flow-past exposure inhalation chamber, rat restraining tubes and a Modified Wright Dust Feed mechanism. Measurements of the aerosol concentration in the inhalation chamber for each dose level was performed by filter sampling at one of the inhalation ports (AP40, 47 mm, Millipore). […] Rats from Group 2 and 3 were exposed to lactose in the restraining tube (Battelle chambers). Target inhaled doses (μg/kg) were calculated assuming exposure duration of 2-10 minutes and a body weight of 250 g using the following formula: The rats were weighed the day prior to OVA challenge. At challenge the rats were anaesthetised with Isoflurane mixture (air and 4% isoflurane) put in supine position with 30-40° angle and instilled with vehicle or compound. This intra-tracheal instillation was performed by using a modified metal cannula with bolus-bulb on the end. Rats were placed in. cages in a supine position with a head up until regaining consciousness. The reference compound was administered twice daily with the second daily administration 6 hours post the first daily administration. Instillation volume: 0.25 mL/rat. Five minutes (5′) before OVA challenge, blood was collected (0.2 ml) from the tongue vein and plasma (60 ul/well) was collected on 96-deepwell plate. The provocation occurred at Day14 (P1) and was applied 2 hours after compound administration. The rats were anaesthetized with Isoflurane mixture (air and 4% isoflurane) put in supine position with 30-40° angle and instilled with the isotonic saline or OVA (0.1 mg/ml). The intra-tracheal instillation was performed. by using a modified metal cannula with bolus-bulb on the end. Rats were placed in cages in a supine position with a head up until regaining consciousness. Sham challenge was performed by i.t. instillation of isotonic saline with the same volume and strategy. Instillation volume: 0.25 ml/rat. At 22 hours post OVA challenge (P1), rats were euthanized with an intraperitoneal injection of 1 ml pentobarbital (50 mg/ml). […]

[2] = target: recombinant JAK1 (amino acids 866-1154) (Homo sapiens (Human), UniProt P23458); experiment: Enzyme inhibition studies, JAK1 (5 mM ATP, Caliper); format: biochemical
How it was run: (§1)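 N-terminal GST-fused kinase domains from insect cells, run at 5 mM ATP with inhibitor at 30, 3, 0.3, 0.03, 0.003 and 0 μM final.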

[3] = target: recombinant JAK3 (amino acids 781-1124) (Homo sapiens (Human), UniProt P52333); experiment: Enzyme inhibition studies, JAK3 (5 mM ATP, Caliper); format: biochemical
How it was run: as §1

[4] = Plasma drug concentration by LC-MSMS at termination of alopecia areata study; format: in vivo; details: 1-2 h after last oral dose at 12.5 mg/kg BW, C3H/HeJ mice
Description: Blood was sampled from behind the eye in EDTA-coated test tubes (Multivette 300, Sarstedt) and kept on ice. Plasma was obtained by centrifugation (4° C., 4000 G, 5 min) and 50 μL transferred to a 96-well NUNC plate and stored at −20° C. until analyzed with regards to drug concentration by LC-MSMS.

[5] = target: recombinant JAK2 (amino acids 831-1132) (Homo sapiens (Human), UniProt O60674); experiment: Enzyme inhibition studies, JAK2 (5 mM ATP, Caliper); format: biochemical
How it was run: as §1

[6] = tested on: IL-13 induced STAT6 promotor luciferase reporter in U937 monocytes (U937-STAT6-Luc); experiment: Cellular interleukin (IL-13) induced JAK-STAT6-luciferase assay (pSTAT6); format: cell-based; details: Homo sapiens, U-937; IL-13 induced STAT6-luciferase, U937-STAT6-Luc cells
How it was run: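 U937 STAT6-luciferase reporter cells in HEPES/HBSS/0.1% BSA buffer, pretreated with serially diluted compounds (10 mM to 0.5 nM DMSO stocks) and stimulated with IL-13. Incubation 4½ h at 37 °C then 30 min at room temperature; SteadyGlo luminescence read.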

Chain of recombinant JAK3 (amino acids 781-1124) (P52333 781-1124): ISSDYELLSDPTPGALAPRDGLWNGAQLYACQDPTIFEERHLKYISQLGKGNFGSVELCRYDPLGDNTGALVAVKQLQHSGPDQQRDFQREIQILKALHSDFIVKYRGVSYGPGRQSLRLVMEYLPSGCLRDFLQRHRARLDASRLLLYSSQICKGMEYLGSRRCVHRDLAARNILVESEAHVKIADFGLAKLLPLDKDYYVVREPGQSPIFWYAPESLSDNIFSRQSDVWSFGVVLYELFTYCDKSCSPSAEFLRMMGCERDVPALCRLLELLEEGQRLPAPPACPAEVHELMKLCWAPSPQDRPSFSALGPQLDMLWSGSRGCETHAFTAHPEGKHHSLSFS
Chain of recombinant JAK1 (amino acids 866-1154) (P23458 866-1154): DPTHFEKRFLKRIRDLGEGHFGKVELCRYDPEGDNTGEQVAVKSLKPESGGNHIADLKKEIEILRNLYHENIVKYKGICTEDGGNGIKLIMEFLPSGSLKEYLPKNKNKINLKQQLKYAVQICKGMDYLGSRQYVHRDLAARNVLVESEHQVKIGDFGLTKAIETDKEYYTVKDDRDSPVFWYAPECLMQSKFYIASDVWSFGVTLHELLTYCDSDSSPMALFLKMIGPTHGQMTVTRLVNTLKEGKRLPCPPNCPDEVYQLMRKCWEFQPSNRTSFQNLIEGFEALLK
Chain of recombinant JAK2 (amino acids 831-1132) (O60674 831-1132): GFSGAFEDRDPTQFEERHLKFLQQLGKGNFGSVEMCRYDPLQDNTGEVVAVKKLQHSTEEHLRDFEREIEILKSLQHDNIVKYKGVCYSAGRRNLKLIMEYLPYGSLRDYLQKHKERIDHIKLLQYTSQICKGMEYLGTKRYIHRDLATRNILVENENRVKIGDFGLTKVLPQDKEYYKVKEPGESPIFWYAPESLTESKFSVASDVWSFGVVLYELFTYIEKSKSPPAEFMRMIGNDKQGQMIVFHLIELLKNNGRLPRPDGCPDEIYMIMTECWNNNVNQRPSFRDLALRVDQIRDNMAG

Row | Compound | IC50 [2] [nM] | IC50 [3] [nM] | mean plasma exposure (total concentration) [4] [nM] | IC50 [5] [nM] | IC50 [6] [nM] | inhibition of eosinophils ([1]; i.t. over dose 2*300, twice daily Day14 (Group 8)) [%] | max inhibition of eosinophils ([1]; compared to OVA control (group 3), plateau from the 0.6 μg/kg dose) [%] | reduction of eosinophils in BAL ([1]; lung dose 0.08 μg/kg, not significant) [%] | reduction of eosinophils in BAL ([1]; lung dose 0.11 μg/kg, not significant) [%] | reduction of eosinophils in BAL ([1]; lung dose 0.6 μg/kg, p<0.01) [%] | reduction of eosinophils in BAL ([1]; lung dose 4.76 μg/kg, p<0.01) [%]
1 | CCCC1O[C@@H]2C[C@H]3[C@@H]4CCC5=CC(=O)C=C[C@]5(C)[C@H]4[C@@H](O)C[C@]3(C)[C@]2(C(=O)CO)O1 (stereo partly drawn) [Budesonide, reference compound] |  |  |  |  |  | 97 |  |  |  |  | 
2 | CC[C@@H](C(=O)Nc1cccc2c(-c3nc(Nc4cccc(S(C)(=O)=O)c4F)ncc3C)c[nH]c12)N1CCN(C)CC1C (stereo in doubt) [Example 50, (S)-2-((R)-2,4-dimethylpiperazin-1-yl)-N-(3-(2-((2-fluoro-3-(methylsulfonyl)phenyl)amino)-5-methylpyrimidin-4-yl)-1H-indol-7-yl)butanamide] | 48.5 | > 30000 |  | > 30000 | 362 |  |  |  |  |  | 
3 | CC[C@H](C(=O)Nc1cccc2c(-c3nc(Nc4cccc(S(C)(=O)=O)c4F)ncc3C)c[nH]c12)N1CCCN(C)CC1 [Example 37, (R)-N-(3-(2-((2-fluoro-3-(methylsulfonyl)phenyl)amino)-5-methylpyrimidin-4-yl)-1H-indol-7-yl)-2-(4-methyl-1,4-diazepan-1-yl)butanamide] | < 3 | > 30000 |  | 968 | 26.9 |  |  |  |  |  | 

Further lines, with some results ahead:

Row | IC50 [2] [nM] | IC50 [3] [nM] | mean plasma exposure (total concentration) [4] [nM] | IC50 [5] [nM] | IC50 [6] [nM] | Compound | inhibition of eosinophils ([1]; i.t. over dose 2*300, twice daily Day14 (Group 8)) [%] | max inhibition of eosinophils ([1]; compared to OVA control (group 3), plateau from the 0.6 μg/kg dose) [%] | reduction of eosinophils in BAL ([1]; lung dose 0.08 μg/kg, not significant) [%] | reduction of eosinophils in BAL ([1]; lung dose 0.11 μg/kg, not significant) [%] | reduction of eosinophils in BAL ([1]; lung dose 0.6 μg/kg, p<0.01) [%] | reduction of eosinophils in BAL ([1]; lung dose 4.76 μg/kg, p<0.01) [%]
4 | < 3 | > 30000 | 338 |  |  | COC[C@H](C(=O)Nc1cccc2c(-c3nc(Nc4cccc(S(C)(=O)=O)c4F)ncc3F)c[nH]c12)N1CCN(C)CC1 [Example 35, (R)-N-(3-(5-fluoro-2-(2-fluoro-3-(methylsulfonyl)phenylamino)pyrimidin-4-yl)-1H-indol-7-yl)-3-methoxy-2-(4-methylpiperazin-1-yl)propanamide] |  | 68 | 7 | 28 | 68 | 61
5 | < 3 | > 30000 |  | 293 | 26 | COC[C@H](C(=O)Nc1cccc2c(-c3nc(Nc4cccc(S(C)(=O)=O)c4F)ncc3C)c[nH]c12)N1CCN(C)C[C@H]1C [Example 55, (R)-2-((R)-2,4-dimethylpiperazin-1-yl)-N-(3-(2-((2-fluoro-3-(methylsulfonyl)phenyl)amino)-5-methylpyrimidin-4-yl)-1H-indol-7-yl)-3-methoxypropanamide] |  |  |  |  |  | 
